Experimental data from the supplement of paper PMC10307832.

Assays:
Experiment in all cases: relative viability (nuclei count vs DMSO), 5 days (fraction); higher = more cells survive
[1] = compound: COc1cc([C@@H]2c3cc4c(cc3[C@@H](O[C@@H]3O[C@@H]5CO[C@@H](C)O[C@H]5[C@H](O)[C@H]3O)[C@H]3COC(=O)[C@H]23)OCO4)cc(OC)c1O [Etoposide] + O=C(c1cc(Cc2n[nH]c(=O)c3ccccc23)ccc1F)N1CCN(C(=O)C2CC2)CC1 [Olaparib] (partner 8 µM)
Outline: (§1)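 Cells from lung cancer lines were seeded into 1536-well plates and, one day later, dosed by pin tool. Treatments were either a single drug or a fixed dose of an anchor drug with five library-drug doses (not always all listed) in √10 steps. After 5 days, nuclei were stained in a one-step fixation (final 0.05% Triton X-100, 1% formaldehyde, 1 ug/ml Hoechst) and counted on 4× images, and relative viability is the treated-to-vehicle nuclei ratio, as the median of duplicate plates.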

[2] = compound: COc1cc([C@@H]2c3cc4c(cc3[C@@H](O[C@@H]3O[C@@H]5CO[C@@H](C)O[C@H]5[C@H](O)[C@H]3O)[C@H]3COC(=O)[C@H]23)OCO4)cc(OC)c1O [Etoposide] + Cc1nc(NC(=O)N2CCC[C@H]2C(N)=O)sc1-c1ccnc(C(C)(C)C(F)(F)F)c1 [Alpelisib] (partner 2 µM)
Outline: as §1

[3] = compound: CC1=C(N=C(N=C1N)[C@H](CC(=O)N)NC[C@@H](C(=O)N)N)C(=O)N[C@@H]([C@H](C2=CN=CN2)OC3C(C(C(C(O3)CO)O)O)OC4C(C(C(C(O4)CO)O)OC(=O)N)O)C(=O)N[C@H](C)[C@H]([C@H](C)C(=O)N[C@@H]([C@@H](C)O)C(=O)NCCC5=NC(=CS5)C6=NC(=CS6)C(=O)NCCC[S+](C)C)O [Bleomycin] + CS(=O)(=O)CCNCc1ccc(-c2ccc3ncnc(Nc4ccc(OCc5cccc(F)c5)c(Cl)c4)c3c2)o1 [Lapatinib] (partner 2 µM); conditions: main component drawn
Outline: as §1

[4] = compound: COc1cc([C@@H]2c3cc4c(cc3[C@@H](O[C@@H]3O[C@@H]5CO[C@@H](C)O[C@H]5[C@H](O)[C@H]3O)[C@H]3COC(=O)[C@H]23)OCO4)cc(OC)c1O [Etoposide] + Cc1cc(Nc2cc(N3CCN(C)CC3)nc(Sc3ccc(NC(=O)C4CC4)cc3)n2)n[nH]1 [Tozasertib] (partner 0.1 µM)
Outline: as §1

Row | Cell Line | relative viability ([1]; first compound 0.01 µM) | relative viability ([1]; first compound 0.03162 µM) | relative viability ([1]; first compound 0.1 µM) | relative viability ([1]; first compound 0.3162 µM) | relative viability ([1]; first compound 1 µM) | relative viability ([2]; first compound 0.01 µM) | relative viability ([2]; first compound 0.03162 µM) | relative viability ([2]; first compound 0.1 µM) | relative viability ([2]; first compound 0.3162 µM) | relative viability ([2]; first compound 1 µM) | relative viability ([3]; first compound 0.01 µM) | relative viability ([3]; first compound 0.03162 µM) | relative viability ([3]; first compound 0.1 µM) | relative viability ([3]; first compound 0.3162 µM) | relative viability ([3]; first compound 1 µM) | relative viability ([4]; first compound 0.01 µM) | relative viability ([4]; first compound 0.03162 µM) | relative viability ([4]; first compound 0.1 µM) | relative viability ([4]; first compound 0.3162 µM) | relative viability ([4]; first compound 1 µM)
1 | Calu-6 | 0.585 | 0.547 | 0.505 | 0.274 | 0.202 | 0.837 | 1.08 | 0.798 | 0.709 | 0.338 | 0.729 | 0.614 | 0.456 | 0.168 | 0.174 | – | – | – | – | –
2 | ChaGo-K-1 | 0.399 | 0.44 | 0.332 | 0.219 | 0.179 | – | – | – | – | – | – | – | – | – | – | 0.192 | 0.212 | 0.211 | 0.181 | 0.187
3 | EBC-1 | 0.641 | 0.689 | 0.532 | 0.405 | 0.266 | 0.841 | 0.909 | 0.452 | 0.75 | 0.38 | 0.217 | 0.215 | 0.199 | 0.206 | 0.196 | – | – | – | – | –
4 | EKVX | 0.832 | 0.955 | 0.658 | 0.647 | 0.293 | 0.693 | 0.974 | 0.584 | 0.693 | 0.343 | 0.211 | 0.209 | 0.187 | 0.127 | 0.166 | 0.412 | 0.355 | 0.312 | 0.326 | 0.221
5 | EMC-BAC-2 | 0.443 | 0.413 | 0.352 | 0.249 | 0.214 | 0.711 | 0.65 | 0.522 | 0.238 | 0.15 | 0.817 | 0.754 | 0.719 | 0.399 | 0.305 | 0.251 | 0.276 | 0.288 | 0.221 | 0.203
6 | EPLC-272H | 0.833 | 0.685 | 0.704 | 0.474 | 0.254 | 0.965 | 0.934 | 0.606 | 0.931 | 0.539 | 0.586 | 0.812 | 0.369 | 0.205 | 0.109 | 0.336 | 0.213 | 0.211 | 0.235 | 0.112
7 | H3255 | 0.524 | 0.571 | 0.588 | 0.379 | 0.286 | 0.606 | 0.758 | 0.448 | 0.585 | 0.298 | 0.244 | 0.235 | 0.259 | 0.214 | 0.173 | 0.631 | 0.605 | 0.577 | 0.238 | 0.249
8 | HARA | 0.698 | 0.764 | 0.652 | 0.376 | 0.206 | 0.649 | 0.854 | 0.792 | 0.584 | 0.167 | 0.764 | 0.734 | 0.704 | 0.644 | 0.308 | 0.149 | 0.112 | 0.127 | 0.0757 | 0.0743
